Assay results: patent US20250188079A1, “INHIBITING CYCLIC AMP-RESPONSIVE ELEMENT-BINDING PROTEIN (CREB)” (Forma Therapeutics, Inc., priority 2019, published 2025)

These molecules were tested against CBP (Homo sapiens (Human), UniProt Q92793) (assay: HTRF biochemical assay for CBP activity (TR-FRET, bromodomain)). Conditions: geometric mean, 10-point 3-fold dilution 33 μM to 1.7 nM, read-out: BROMO IC50 TRF TB CBP (μM gmean).
Format: binding
Protocol: Example 1: HTRF Biochemical Assay for CBP Activity
The assay was performed in a final volume of 6 μL in assay buffer containing 50 mM Hepes (pH 7.5, (0.5M Hepes, pH 7.5 solution; Teknova H1575)), 0.5 mM GSH, 0.01% BGG (0.22 p M filtered, Sigma, G7516-25G), 0.005% BSA (0.22 μM filtered, EMD Millipore Corporation, 126575) and 0.01% Triton X-100 (Sigma, T9284-10L). Nanoliter quantities of 10-point, 3-fold serial dilution in DMSO were pre-dispensed into 1536 assay plates (Corning, #3724BC) for a final test concentration of 33 μM to 1.7 nM, top to lowest dose, respectively. 3 μL of 2×Protein and 3 μL of 2×Peptide Ligand were added to assay plates (pre-stamped with compound). Plates were incubated for varying times at room temperature prior to measuring the signal. TR-FRET (Time-Resolved Fluorescence Resonance Energy Transfer) was measured on the PHERAstar (BMG, equipped with HTRF optic module [337/520/490]) or on the Envision (PerkinElmer, equipped with the TRF Laser unit, TRF dual mirror D400/D505 and emission filters M520 and M495). Data were reported as percent inhibition compared with control wells based on the following equation: % inh=1−((TR-FRET ratio−AveLow)/(AveHigh−AveLow)) where TR-FRET ratio=(Fluorescence at 520 nm/Fluorescence at 490 nm)*10000), AveLow=average TR-FRET ratio of no enzyme control (n=32), and AveHigh=average TR-FRET ratio of DMSO control (n=32). IC50 values were determined by curve fitting of the standard 4 parameter logistic fitting algorithm included in the Activity Base software package: IDBS XE Designer Model205. Data is fitted using the Levenburg Marquardt algorithm. As set forth in Table 2 below, an IC50 value of greater than or equal to 0.001 μM and less than or equal to 0.01 μM is marked “++++”; a value greater than 0.01 μM and less than or equal to 0.1 μM is marked “+++”; a value greater than 0.1 μM and less than or equal to 1 μM is marked “++”; and a value greater than 1 μM and less than 1000 μM is marked “+.” Compounds that were not tested in a particular assay are marked “NT.”

Chain of CBP (Q92793 1085-1192): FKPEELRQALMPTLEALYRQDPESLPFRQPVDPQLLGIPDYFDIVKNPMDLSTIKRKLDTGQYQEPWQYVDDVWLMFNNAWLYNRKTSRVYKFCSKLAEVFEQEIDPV

Row | Molecule | IC50 [µM]
1 | COC(=O)N1CCc2ccc3c(nc(C4CCC(C(=O)O)CC4)n3CCc3ccccc3)c2C1 (centres unmarked) [Compound 84] | 0.001 to 0.01
2 | COC(=O)N1CCc2ccc3c(nc(C4CCN(C(=O)CO)CC4)n3[C@@H](C)Cc3ccccc3)c2C1 [Compound 106] | 0.001 to 0.01
3 | COC(=O)N1CCc2ccc3c(nc([C@H]4CCCOC4)n3C[C@H](C(=O)O)c3ccccc3)c2C1 [Compound 89] | 0.001 to 0.01
4 | COC(=O)N1CCc2ccc3c(nc([C@H]4CC[C@H](C(=O)O)CC4)n3Cc3ccc(OC)c(F)c3)c2C1 [Compound 94] | 0.001 to 0.01
5 | COC(=O)N1CCc2ccc3c(nc([C@H]4CC[C@H](C(=O)O)CC4)n3[C@H](C)Cc3ccc(F)c(OC)c3)c2C1 [Compound 286] | 0.01 to 0.1
6 | COC(=O)N1CCc2ccc3c(nc(N4CCN(S(C)(=O)=O)CC4)n3[C@H](C)Cn3cc(Cl)cn3)c2C1 [Compound 343] | 0.1 to 1
7 | COC(=O)N1CCc2ccc3c(nc([C@H]4CC[C@H](C(=O)O)CC4)n3[C@H](C)CC3CCOCC3)c2C1 [Compound 265] | 0.01 to 0.1
8 | COC(=O)N1CCc2ccc3c(nc([C@H]4CC[C@H](C(=O)O)CC4)n3[C@@H](C)C[C@]3(C)CC[C@@H](OC)CC3)c2C1 [Compound 249] | 0.01 to 0.1
9 | COC(=O)N1CCc2ccc3c(nc(C4CCCCC4)n3CCc3ccc(F)c(C(=O)O)c3)c2C1 [Compound 160] | 0.001 to 0.01
10 | COC(=O)N1CCc2ccc3c(nc(C4CCN(C(C)=O)CC4)n3[C@@H](C)Cc3ccccc3)c2C1 [Compound 323] | 0.1 to 1
11 | COC(=O)N1CCc2ccc3c(nc(N4CCC[C@@H](C(=O)O)C4)n3C[C@H](C)c3ccccc3)c2C1 [Compound 144] | 0.001 to 0.01
12 | COC(=O)N1CCc2ccc3c(nc(N4CCC(C(=O)O)CC4)n3[C@@H](C)Cn3cc(Cl)cn3)c2C1 [Compound 73] | 0.001 to 0.01
13 | COC(=O)N1CCc2ccc3c(nc(C4CCCCC4)n3[C@H](C)C[C@H]3CCCC[C@@H]3C(=O)O)c2C1 [Compound 112] | 0.001 to 0.01
14 | COC(=O)N1CCc2ccc3c(nc(N4CCC(C(=O)O)CC4)n3[C@@H](C)Cc3ccccc3C)c2C1 [Compound 63] | 0.001 to 0.01
15 | COC(=O)N1CCc2ccc3c(nc(-c4ccc(C(C)(C)C(=O)O)cc4)n3[C@@H](C)Cn3cc(Cl)cn3)c2C1 [Compound 258] | 0.01 to 0.1
16 | COC(=O)N1CCc2ccc3c(nc(-c4cccc([C@](C)(O)C(=O)O)c4)n3[C@@H](C)Cc3ccccc3)c2C1 [Compound 184] | 0.01 to 0.1
17 | COC(=O)N1CCc2ccc3c(nc(N4CCC(C(=O)O)CC4)n3[C@H](C)Cc3cc(F)cc(F)c3)c2C1 [Compound 308] | 0.1 to 1
18 | COC(=O)N1CCc2ccc3c(nc(C4CCCCC4)n3C[C@H](CC(=O)O)c3cc(F)cc(OC)c3)c2C1 [Compound 36] | 0.001 to 0.01
19 | COC(=O)N1CCc2ccc3c(nc([C@H]4CCC[C@H](C(=O)O)C4)n3Cc3cncc(Cl)n3)c2C1 [Compound 254] | 0.01 to 0.1
20 | COC(=O)N1CCc2ccc3c(nc(C4CCNCC4)n3CCc3ccccc3)c2C1 [Compound 345] | 0.1 to 1
21 | COC(=O)N1CCc2ccc3c(nc(C4CCCCC4)n3C[C@@H](C(=O)O)c3cc(F)c(Cl)cc3OC)c2C1 (single isomer, unassigned) [Compound 32] | 0.001 to 0.01
22 | COC(=O)N1CCc2ccc3c(nc([C@H]4C[C@@H](C(=O)O)C4)n3[C@@H](C)Cc3ccccc3C)c2C1 [Compound 130] | 0.001 to 0.01
23 | COC(=O)N1CCc2ccc3c(nc(C4CCCCC4)n3C[C@H]3CCCC[C@@H]3C(=O)O)c2C1 [Compound 196] | 0.01 to 0.1
24 | (3R)-4-[2-cyclohexyl-8-(methoxycarbonyl)-3H,6H,7H,8H,9H-imidazo[4,5-h]isoquinolin-3-yl]-3-(3-fluoro-5-methoxyphenyl)butanoic acid [Compound 194] | 0.01 to 0.1
25 | COC(=O)N1CCc2ccc3c(nc([C@H]4CC[C@H](C(=O)O)CC4)n3[C@@H](C)Cc3ccccc3)c2C1 [Compound 72] | 0.001 to 0.01
26 | COC(=O)N1CCc2ccc3c(nc([C@H]4CC[C@H](C(=O)O)CC4)n3[C@@H](C)Cn3ncc4ccccc43)c2C1 [Compound 88] | 0.001 to 0.01
